The supplement of paper PMC11208160

test: recombinant UMI read abundance after kanamycin selection (control-corrected) (log10(CPM+1)); higher = more efficient recombination; extreme values may be limits of the assay; sequences stand for … in AGTGCAGAGAAAATCGGCCAGTTTTCTCTGCCTGCAGTCCGCATGCCGTGGGACCCCTTGGGTTCTAACCTGTTGCCTAGATTTATGCAGCGGACTGCCTTTCTCCCAAAGTGATAAACCGG…AGGTTGGTTTCACT; site = the 11-nt donor
Summary of the method: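 Values, expressed as log10(CPM+1), derive from recombinant UMI counts converted to CPM, averaged across replicates and scaled by control-derived factors. Plating was with IPTG (0.07 mM) plus kanamycin or unselected, two replicates each. The screen pooled donor and donor-binding-loop pairs for the IS621 bridge recombinase in Escherichia coli.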
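Also: IS621 bridge recombinase in Escherichia coli cells against a fixed T5 target plasmid.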

Row | Sequence | recombinant UMI read abundance (log10)
1 | GCTATCACATGGACCGGTTTTCCCGGTAATCCGTATTTGGG (site GCTATCACTCC) | 0.147
2 | GCTATTGCATGGACCGGTTTTCCCGGTAATCCGTATTTGCC (site GCTAATGCTGG) | 0
3 | GCTATTGCATGGACCGGTTTTCCCGGTAATCCGTATTTGCC (site GCTACTGCTGG) | 0
4 | GCTATTGCATGGACCGGTTTTCCCGGTAATCCGTATTTGCC (site GCTAGTGCTGG) | 0.00747
5 | GCTATTGCATGGACCGGTTTTCCCGGTAATCCGTATTTGCC (site GCTATTGCTGG) | 0.891
6 | GCTCACCCATGGACCGGTTTTCCCGGTAATCCGTATTTGCT (site GCTCACCCTAG) | 0
7 | GCTCATTCATGGACCGGTTTTCCCGGTAATCCGTATTTGAG (site GCTCATTCTCT) | 1.39
8 | GCTCGCGCATGGACCGGTTTTCCCGGTAATCCGTATTTGTG (site GCTCGCGCTCA) | 0.397
9 | GCTCGTCCATGGACCGGTTTTCCCGGTAATCCGTATTTGGG (site GCTCGTCCTCC) | 0.0164
10 | GCTCTATCATGGACCGGTTTTCCCGGTAATCCGTATTTGCT (site GCTCTATCTAG) | 2.04
11 | GCTGCGCCATGGACCGGTTTTCCCGGTAATCCGTATTTGGA (site GCTGCGCCTTC) | 0.0238
12 | GCTGGGACATGGACCGGTTTTCCCGGTAATCCGTATTTGTG (site GCTGGGACTCA) | 0.944
13 | GCTGGTACATGGACCGGTTTTCCCGGTAATCCGTATTTGCG (site GCTGGTACTCG) | 1.68
14 | GCTGTGTCATGGACCGGTTTTCCCGGTAATCCGTATTTGCG (site GCTGTGTCTCG) | 2.07
15 | GCTTAAGCATGGACCGGTTTTCCCGGTAATCCGTATTTGCC (site GCTTAAGCTGG) | 0.666
16 | GCTTACACATGGACCGGTTTTCCCGGTAATCCGTATTTGCG (site GCTTACACTCG) | 1.72
17 | GCTTACCCATGGACCGGTTTTCCCGGTAATCCGTATTTGAT (site GCTTACCCTAT) | 0.0241
18 | GCTTACCCATGGACCGGTTTTCCCGGTAATCCGTATTTGAT (site GCTTCCCCTAT) | 0
19 | GCTTACCCATGGACCGGTTTTCCCGGTAATCCGTATTTGAT (site GCTTGCCCTAT) | 0.0186
20 | GCTTACCCATGGACCGGTTTTCCCGGTAATCCGTATTTGAT (site GCTTTCCCTAT) | 0
21 | GCTTATCCATGGACCGGTTTTCCCGGTAATCCGTATTTGCT (site GATTATCCTAG) | 0
22 | GCTTATCCATGGACCGGTTTTCCCGGTAATCCGTATTTGCT (site GCTTATCCTAG) | 1.03
23 | GCTTATCCATGGACCGGTTTTCCCGGTAATCCGTATTTGCT (site GGTTATCCTAG) | 0
24 | GCTTATCCATGGACCGGTTTTCCCGGTAATCCGTATTTGCT (site GTTTATCCTAG) | 0
25 | GCTTCCGCATGGACCGGTTTTCCCGGTAATCCGTATTTGTT (site GCTTCCGCTAA) | 1.48

Row | Sequence | recombinant UMI read abundance (log10)
26 | GCTTCTACATGGACCGGTTTTCCCGGTAATCCGTATTTGTA (site GCTTCTACTTA) | 0.541
27 | GCTTGACCATGGACCGGTTTTCCCGGTAATCCGTATTTGAT (site GCTTGACCTAT) | 0.00317
28 | GCTTGACCATGGACCGGTTTTCCCGGTAATCCGTATTTGAT (site GCTTGCCCTAT) | 0.00707
29 | GCTTGACCATGGACCGGTTTTCCCGGTAATCCGTATTTGAT (site GCTTGGCCTAT) | 0.117
30 | GCTTGACCATGGACCGGTTTTCCCGGTAATCCGTATTTGAT (site GCTTGTCCTAT) | 0.00374
31 | GCTTGCCCATGGACCGGTTTTCCCGGTAATCCGTATTTGAA (site GCTTGCCCTAT) | 0
32 | GCTTGCCCATGGACCGGTTTTCCCGGTAATCCGTATTTGAA (site GCTTGCCCTCT) | 0.00774
33 | GCTTGCCCATGGACCGGTTTTCCCGGTAATCCGTATTTGAA (site GCTTGCCCTGT) | 0
34 | GCTTGCCCATGGACCGGTTTTCCCGGTAATCCGTATTTGAA (site GCTTGCCCTTT) | 0.0264
35 | GCTTGCCCATGGACCGGTTTTCCCGGTAATCCGTATTTGAC (site GCTTGCCCTAT) | 0
36 | GCTTGCCCATGGACCGGTTTTCCCGGTAATCCGTATTTGAC (site GCTTGCCCTCT) | 0.0563
37 | GCTTGCCCATGGACCGGTTTTCCCGGTAATCCGTATTTGAC (site GCTTGCCCTGT) | 0
38 | GCTTGCCCATGGACCGGTTTTCCCGGTAATCCGTATTTGAC (site GCTTGCCCTTT) | 0.0621
39 | GCTTGGACATGGACCGGTTTTCCCGGTAATCCGTATTTGGA (site GCTTGGACTTC) | 0.32
40 | GGAAATCCATGGACCGGTTTTCCCGGTAATCCGTATTTGGG (site GGAAATCCTCC) | 0.00368
41 | GGAACGTCATGGACCGGTTTTCCCGGTAATCCGTATTTGTT (site GGAACGTCTAA) | 0.993
42 | GGAACGTCATGGACCGGTTTTCCCGGTAATCCGTATTTGTT (site GGCACGTCTAA) | 0.00816
43 | GGAACGTCATGGACCGGTTTTCCCGGTAATCCGTATTTGTT (site GGGACGTCTAA) | 0.28
44 | GGAACGTCATGGACCGGTTTTCCCGGTAATCCGTATTTGTT (site GGTACGTCTAA) | 0.00512
45 | GGAACTACATGGACCGGTTTTCCCGGTAATCCGTATTTGCC (site GGAACTACTGG) | 1.05
46 | GGAAGCACATGGACCGGTTTTCCCGGTAATCCGTATTTGGG (site GGAAGCACTCC) | 0.0218
47 | GGAAGTACATGGACCGGTTTTCCCGGTAATCCGTATTTGAC (site GGAAGTACTGT) | 2.57
48 | GGAAGTGCATGGACCGGTTTTCCCGGTAATCCGTATTTGAA (site GGAAGTGCTTT) | 2.27
49 | GGAATCTCATGGACCGGTTTTCCCGGTAATCCGTATTTGAA (site GGAATCTCTTT) | 2.55
50 | GGAATGTCATGGACCGGTTTTCCCGGTAATCCGTATTTGTT (site GGAATGTCTAA) | 2.44

Row | Sequence | recombinant UMI read abundance (log10)
51 | GGAGACGCATGGACCGGTTTTCCCGGTAATCCGTATTTGGT (site GGAGACGCTAC) | 0.461
52 | GGAGCCTCATGGACCGGTTTTCCCGGTAATCCGTATTTGAC (site GGAGCCTCTGT) | 2.15
53 | GGAGCTACATGGACCGGTTTTCCCGGTAATCCGTATTTGAG (site GGAGCTACTCT) | 0.606
54 | GGAGGCGCATGGACCGGTTTTCCCGGTAATCCGTATTTGCC (site GGAGGCGCTGG) | 3.44
55 | GGAGGGGCATGGACCGGTTTTCCCGGTAATCCGTATTTGGT (site GGAGAGGCTAC) | 0.335
56 | GGAGGGGCATGGACCGGTTTTCCCGGTAATCCGTATTTGGT (site GGAGCGGCTAC) | 0.00457
57 | GGAGGGGCATGGACCGGTTTTCCCGGTAATCCGTATTTGGT (site GGAGGGGCTAC) | 0.699
58 | GGAGGGGCATGGACCGGTTTTCCCGGTAATCCGTATTTGGT (site GGAGTGGCTAC) | 0.0205
59 | GGAGTGGCATGGACCGGTTTTCCCGGTAATCCGTATTTGGG (site GGAGTGGCTAC) | 0.497
60 | GGAGTGGCATGGACCGGTTTTCCCGGTAATCCGTATTTGGG (site GGAGTGGCTCC) | 0.779
61 | GGAGTGGCATGGACCGGTTTTCCCGGTAATCCGTATTTGGG (site GGAGTGGCTGC) | 0
62 | GGAGTGGCATGGACCGGTTTTCCCGGTAATCCGTATTTGGG (site GGAGTGGCTTC) | 0.00897
63 | GGAGTTGCATGGACCGGTTTTCCCGGTAATCCGTATTTGGT (site GGAGTAGCTAC) | 0.089
64 | GGAGTTGCATGGACCGGTTTTCCCGGTAATCCGTATTTGGT (site GGAGTCGCTAC) | 1.05
65 | GGAGTTGCATGGACCGGTTTTCCCGGTAATCCGTATTTGGT (site GGAGTGGCTAC) | 0.00345
66 | GGAGTTGCATGGACCGGTTTTCCCGGTAATCCGTATTTGGT (site GGAGTTGCTAC) | 0.861
67 | GGATACACATGGACCGGTTTTCCCGGTAATCCGTATTTGGG (site GGATACACTCC) | 0.348
68 | GGATAGACATGGACCGGTTTTCCCGGTAATCCGTATTTGCT (site GGATAGACTAG) | 2.78
69 | GGATAGACATGGACCGGTTTTCCCGGTAATCCGTATTTGCT (site GGATAGACTCG) | 0.855
70 | GGATAGACATGGACCGGTTTTCCCGGTAATCCGTATTTGCT (site GGATAGACTGG) | 2.33
71 | GGATAGACATGGACCGGTTTTCCCGGTAATCCGTATTTGCT (site GGATAGACTTG) | 1.1
72 | GGATAGCCATGGACCGGTTTTCCCGGTAATCCGTATTTGAG (site GGATAGCCTCT) | 0.00752
73 | GGATAGCCATGGACCGGTTTTCCCGGTAATCCGTATTTGCC (site GGATAGACTGG) | 0
74 | GGATAGCCATGGACCGGTTTTCCCGGTAATCCGTATTTGCC (site GGATAGCCTGG) | 0
75 | GGATAGCCATGGACCGGTTTTCCCGGTAATCCGTATTTGCC (site GGATAGGCTGG) | 0
